# Results from ChEMBL document CHEMBL1148724, “Design, synthesis, and biological activity of 5,10-dihydro-dibenzo[b,e][1,4]diazepin-11-one-based potent and selective Chk-1 inhibitors” (J Med Chem, 2007).
# Molecular target: T1, Serine/threonine-protein kinase Chk1 (Homo sapiens, UniProt O14757)
# T1 sequence (O14757 whole entry): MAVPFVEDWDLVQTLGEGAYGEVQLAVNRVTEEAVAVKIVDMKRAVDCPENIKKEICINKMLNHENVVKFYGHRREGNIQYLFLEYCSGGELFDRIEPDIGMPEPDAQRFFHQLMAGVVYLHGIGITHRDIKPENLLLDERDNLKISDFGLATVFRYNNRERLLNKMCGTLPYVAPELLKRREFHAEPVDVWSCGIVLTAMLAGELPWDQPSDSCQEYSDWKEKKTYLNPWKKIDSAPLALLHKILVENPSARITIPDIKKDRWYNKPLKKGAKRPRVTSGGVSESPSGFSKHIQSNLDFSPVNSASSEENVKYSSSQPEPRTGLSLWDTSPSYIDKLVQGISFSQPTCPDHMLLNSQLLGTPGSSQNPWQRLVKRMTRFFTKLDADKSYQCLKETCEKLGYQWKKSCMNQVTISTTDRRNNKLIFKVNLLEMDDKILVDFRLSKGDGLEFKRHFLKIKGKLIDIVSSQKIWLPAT
# Assay: Inhibition of human recombinant Chk1
row,SMILES,IC50
1,N#Cc1cccc(-c2ccc3c(c2)Nc2ccccc2NC3=O)c1,970 nM
2,COc1cc(-c2ccc3c(c2)C(=O)Nc2ccccc2N3)ccc1O,> 10000 nM
3,COc1ccccc1-c1ccc2c(c1)Nc1ccccc1NC2=O,3600 nM
4,CC(=O)c1cccc(-c2ccc3c(c2)Nc2ccccc2NC3=O)c1,2100 nM
5,O=C1Nc2ccccc2S(=O)(=O)c2ccccc21,> 50000 nM
6,N#Cc1ccc(-c2ccc3c(c2)Nc2ccccc2NC3=O)cc1,> 10000 nM
7,CC(=O)c1ccc(-c2ccc3c(c2)Nc2ccccc2NC3=O)cc1,> 10000 nM
8,CCOc1cccc(-c2ccc3c(c2)Nc2ccccc2NC3=O)c1,> 10000 nM
9,CC(=O)c1ccccc1-c1ccc2c(c1)Nc1ccccc1NC2=O,8000 nM
10,O=C1Nc2ccccc2C(O)c2ccccc21 (stereo not given),> 50000 nM
11,O=c1[nH]c2ccccc2c(=O)c2ccccc12,> 50000 nM
12,O=C1Nc2ccccc2Nc2cc(-c3ccccc3)ccc21,> 10000 nM

# Compounds with a lower IC50, results first:
row,IC50,SMILES
1,500 nM,COc1cccc(-c2ccc3c(c2)Nc2ccccc2NC3=O)c1
2,91 nM,COc1cc(-c2ccc3c(c2)Nc2ccccc2NC3=O)ccc1Cl
3,88 nM,COc1cc(-c2ccc3c(c2)Nc2ccccc2NC3=O)ccc1C(N)=O
4,82 nM,COc1cc(-c2ccc3c(c2)Nc2ccccc2NC3=O)ccc1O
5,53 nM,COC(=O)c1ccc(-c2ccc3c(c2)Nc2ccccc2NC3=O)cc1OC
6,48 nM,COc1cc(-c2ccc3c(c2)Nc2ccccc2NC3=O)ccc1C(C)=O
7,33 nM,COc1cc(-c2ccc3c(c2)Nc2ccccc2NC3=O)ccc1C#N
8,10 nM,COc1cc(-c2ccc3c(c2)Nc2ccccc2NC3=O)ccc1[N+](=O)[O-]
